Data published in US20260356814A1, “INDOLINE DERIVATIVES AS SEROTONERGIC AGENTS USEFUL FOR THE TREATMENT OF DISORDERS RELATED THERETO” (MINDSET PHARMA INC., priority 2022, published 2026).
“Also recorded” adds a separate entry of the source.

Experiments:
Plasma stability, rat = format: in vitro ADME; details: 37° C.
Protocol: (§1) • a. […] The final concentration of organic solvents was 0.5%. The assay was performed in duplicated. • b.
(§2) All calculations were carried out using Microsoft Excel.

[1] = molecular target: T1, human 5-HT2A (h5-HT2A) receptor (Homo sapiens, UniProt P28223); assay: FLIPR assay: human 5-HT2A (agonist mode); format: cell-based; details: @10 μM (head); footnote: curve fitting with activation (%) @ 10 mM with RFU; RFU=Fmax−Fmin
T1 construct: expressed in transfected cells; host or cells: HEK293 (HTR2A&Ga15-HEK293, tetracycline-induced)
Protocol: Assessment of the effect of exemplary compounds of Formula I targeting on human 5-HT2A (h5-HT2A) receptor under agonist mode.
HTR2A&Ga15-HEK293 cells were cultured in DMEM medium containing 10% dialyzed FBS and 1x penicillin-streptomycin, 100 μg/mL Hygromycin B and 300 μg/mL G418. The cells were passaged about three times a week, maintained between ~30% to ~90% confluence.
• 1. The cell culture medium (DMEM medium containing 10% dialyzed FBS and 1× penicillin-streptomycin, 100 μg/mL Hygromycin B and 300 μg/mL G418), TrypLE™ Express and DPBS to R.T. was warmed in advance. • 2. For induction, 1 μg/ml tetracycline (final concentration) was added to cell culture medium and incubated for 48 hours prior to seeding cells into plate at 37° C., 5% (v/v) CO2. The cell culture medium was removed from flask. Cells were washed with DPBS. • 3. 2 mL TrypLE™ Express was added to the flask, mixed well by gentle shaking and cells were incubated at 37° C. for a few minutes. • The cells were checked for morphological change under microscope, the digestion was stopped by adding 4 mL cell culture medium to the flask when most of cells turned to round. • 5. The cell suspension was transferred into a 15 mL centrifuge tube, and then centrifuged at 1,200 rpm for 5 minutes. • 6. The supernatant was removed. The cell pellet was resuspended with 2 mL cell culture medium. • 7. The cell density was counted using cell counter. Only cells with >85% viability were used for the assay. • 8. Cells were diluted to 6.67×10^5/mL with cell culture medium. • 9. 30 μL/well cell suspensions added into a 384-well cell plate (The cell density was 20,000 cells/well). • 10. The cell plate was incubated overnight at 37° C., 5% (v/v) CO2. 2.3 Cell handling • 1. On the day of experiments, culture medium was removed from the cell plate. • 2. 10 μL of assay buffer (20 mM HEPES, in 1×HBSS, pH 7.4) was added to each well of the cell plate. • 3. 2×dye solution was prepared following the manual of the FLIPR® Calcium 6 Assay Kit: • i. The dye was diluted with assay buffer. • ii. Probenecid was added to the final concentration of 5 mM. • iii. Vortexed vigorously for 1-2 minutes. • 4. 10 μL of 2× dye solution was added to each well of the cell plate • 5. The cell plate was placed on plate shaker, followed by shaking at 600 rpm for 2 minutes. • 6. The plate was incubated at 37° C. for 2 hours followed by an additional 15-minute incubation at 25° C. 2.4 Prepare 3×compound • 1. Serotonin HCl was prepared to the concentration of 10 mM with DMSO. • 2. The test compounds were prepared to the concentration of 10 mM with DMSO. • 3. The compounds were added to a 384-well compound source plate. • 4. 3-folds serial dilutions were performed with DMSO. • 5. 90 nL/well of serial diluted compounds was transferred from source plate to a 384-well compound plate by using an Echo. • 6. 30 μL/well of assay buffer (20 mM HEPES in 1x HBSS, pH 7.4) was added to the compound plate. • 7. The plate was mixed on-plate shaker for 2 minutes.
• 1. After the cells were incubated with dye solution, the cell plate, compound plate containing 3×compounds and FLIPR tips were placed into FLIPR. • 2. 10 μL of 3×compounds transferred from the compound plate to the cell plate by FLIPR. • 3. The plate was read for 160 sec with 1 sec interval and the data of agonist mode was obtained.
(§3) • 1. The normalized fluorescence reading (RFU) was calculated as shown below, wherein Fmax and Fmin stand for maximum and minimum of calcium signal during defined time window:
RFU=Fmax−Fmin • 2. EC50 by fitting RFU against log of compound concentrations with Hill equation was calculated using XLfit.
The following procedure can also be followed: • 1. Cells are cultured in cell culture medium (DMEM containing 10% FBS, 1× penicillin-streptomycin 300 μg/ml G418 and 100 μg/ml hygromycin B) at 37° C., 5% (v/V) CO2. • 2. One day before the assays, the cells are detached using TrypLE™ Express and cells are counted using cell counter.

human 5-HT2A receptor = human 5-HT2A receptor (Homo sapiens, UniProt P28223); assay: Human 5-HT2A: Radioligand binding assay ([3H]-ketanserin); details: [3H]-ketanserin displacement, 27° C., 90 min, pH 7.4; read-out: h5-HT2A, IC50
Protocol: Exemplary compounds of Formula I were evaluated functionally using FLIPR assay for their effect on h5-HT2A receptor under agonist mode. The objective of this study was to evaluate the binding properties of exemplary compounds of Formula I on 5-hydroxytryptamine receptor 2A (5-HT2A). • Human 5-HT2A: Radioligand binding assay:
• i. The assay buffer was prepared following the table below.
• Adjust pH to 7.4 followed by […] sterile filtration • ii. 8 doses of reference and test compounds starting from 10 mM stock solution as required was prepared by 5-fold serial dilutions with 100% (v/v) DMSO. • iii. UniFilter-96 GF/B plate was pretreated: • a. 50 μl/well of 0.5% (v/v) PEI was added to UniFilter-96 […] plates. The plates were sealed and incubated at 4° C. for 3 hrs. • b. After incubation, the plates were washed 3 times with ice-cold wash buffer (50 mM Tris, pH7.4). • iv. The assay plate was prepared: • a. Cell membrane was diluted with assay buffer and 330 μl/well was added to 96 round deep well plates to reach a concentration of 20 μg/well. • b. 8 concentrations of reference or test compounds were prepared and 110 μl/well was added to 96 round deep well plates. • c. [3H]-ketanserin was diluted with assay buffer to 5 nM (5X final concentration) and 110 μl/well was added to 96 round deep well plates. • v. The plate was centrifuged at 1000 rpm for 30 secs and then agitated at 600 rpm, R.T. for 5 min. • vi. The plates were sealed and the plate incubated at 27° C. for 90 min. • vii. The incubation was stopped by vacuum filtration onto GF/B filter plates followed by 4 times washing with ice-cold wash buffer (50 mM Tris, pH7.4). • viii. The plates were dried at 37° C. for 45 min. • ix. The filter plates were sealed and 40 μl/well of scintillation cocktail was added. • x. The plate was read by using a Microbeta2 microplate counter.
• 1. For reference and test compounds, the results were expressed as % Inhibition, using the normalization equation: N=100−100×(U−C2)/(C1-C2), where U is the unknown value, C1 is the average of high controls, and C2 is the average of low controls. • 2. The IC50 was determined by fitting percentage of inhibition as a function of compound concentrations with Hill equation using XLfit.

Plasma stability, mouse = format: in vitro ADME; details: 37° C.
Protocol: as §1, §2

Plasma stability, human = format: in vitro ADME; details: 37° C.
Protocol: as §1, §2

human 5-HT1A receptor = molecular target: T2, human 5-HT1A receptor (Homo sapiens, UniProt P08908); assay: Human 5-HT1A: Functional FLIPR assay (agonist mode); format: cell-based; details: @10 μM (head); footnote: curve fitting with activation (%) @ 10 mM with RFU; RFU=Fmax−Fmin
T2 construct: expressed in transfected cells; host or cells: CHO (HTR1A&Ga15-CHO)
T2 sequence (P08908 1-422): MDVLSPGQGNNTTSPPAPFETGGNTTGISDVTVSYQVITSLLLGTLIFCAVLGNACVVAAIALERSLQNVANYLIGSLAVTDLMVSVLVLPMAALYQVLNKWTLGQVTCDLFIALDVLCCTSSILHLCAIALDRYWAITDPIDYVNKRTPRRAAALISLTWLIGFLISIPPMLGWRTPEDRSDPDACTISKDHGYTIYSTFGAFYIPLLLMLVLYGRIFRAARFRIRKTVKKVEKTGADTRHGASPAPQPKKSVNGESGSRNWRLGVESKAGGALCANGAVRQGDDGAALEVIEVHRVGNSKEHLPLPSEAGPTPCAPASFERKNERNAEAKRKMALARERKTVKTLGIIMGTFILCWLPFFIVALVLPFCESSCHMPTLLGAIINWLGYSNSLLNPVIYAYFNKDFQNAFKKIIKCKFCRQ
Protocol: The potential excitatory effects of compounds targeting on 5-hydroxytryptamine receptor 1A (5-HT1A) under agonist mode was assessed.
HTR1A&Ga15-CHO cells were cultured in DMEM/F12 medium containing 10% dialyzed FBS, 1x penicillin-streptomycin and 600 μg/mL Hygromycin B. The cells were passaged about three times a week, maintained between ~30% to ~90% confluence.
• 1. The cell culture medium (DMEM/F12 medium containing 10% dialyzed FBS, 1x penicillin-streptomycin and 600 μg/mL Hygromycin B), TrypLE™ Express and DPBS was warmed to R.T. in advance. • 2. The cell culture medium was removed from flask. Washed cells with DPBS. • 3. 1 mL TrypLE™ Express was added to the flask, mixed well by gentle shaking and cells were incubated at 37° C. for a few minutes. • 4. The cells were checked for morphological change under microscope, the digestion was stopped by adding 2 mL cell culture medium to the flask when most of cells turned to round. • 5. The cell suspension was transferred into a 15 mL centrifuge tube, and then centrifuged at 1,200 rpm for 5 minutes. • 6. The supernatant was removed. The cell pellet were resuspended with 2 mL cell culture medium. • 7. The cell density were counted using cell counter. Only cells with >85% viability were used for the assay. • 8. Cells were diluted to 4×10^5/mL with cell culture medium. • 9. 30 μL/well cell suspensions were added into a 384-well cell plate (The cell density was 12,000 cells/well). • 10. The cell plate was incubated overnight at 37° C., 5% (v/v) CO2.
• 1. On the day of experiments, culture medium was removed from the cell plate. • 2. 10 μL of assay buffer (20 mM HEPES, in 1×HBSS, pH 7.4) was added to each well of the cell plate. • 3. 2× dye solution was prepared following the manufacture's instruction of the FLIPR® Calcium 6 assay kit: • i. The dye was diluted with assay buffer. • ii. probenecid was added to the final concentration of 5 mM. • iii. Vortexed vigorously for 1-2 minutes, adjust pH to 7.4. • 4. 10 μL of 2×dye solution was added to each well of the cell plate. • 5. The cell plate was placed on plate shaker, followed by shaking at 600 rpm for 2 minutes. • 6. The plate was incubated at 37° C. for 2 hours followed by an additional 15-minute incubation at 25° C. 3.4 Prepare 3×compounds. • 1. Serotonin was prepared to the concentration of 10 mM with DMSO, 3-folds serial dilutions were performed with DMSO. • 2. Prepare the test compound to the concentration of 10 mM with DMSO, preform 3-folds serial dilutions with DMSO. • 3. The compounds were added to a 384-well compound source plate. • 4. 90 nL/well of serial diluted compounds were transferred from source plate to a 384-well compound plate by using an Echo. • 5. 30 μL/well of assay buffer was added to the compound plate. • 6. The plate was mixed on-plate shaker for 2 minutes. 3.5 FLIPR assay • 1. After the cells incubate with dye solution, the cell plate, compound plate containing 3×compounds and FLIPR tips were placed into FLIPR. • 2. 10 μL of 3×compounds were transferred from the compound plate to the cell plate by FLIPR. • 3. The plate was read for 160 sec with 1 sec interval to obtain the data of agonist mode.
as §3
RFU=Fmax−Fmin • 2. EC50 was calculated by fitting RFU against log of compound concentrations with Hill equation using XLfit.

5-HT2 receptor = details: daily administration; cited from earlier work
[2] = test system: brain's default mode network; details: intravenously administered; cited from earlier work
[3] = test system: depression and anxiety associated with life-threatening disease; details: in a supportive setting; cited from earlier work
[4] = 30 min, read-out: Remaining Percentage (%), 30 min
[5] = 60 min, read-out: Remaining Percentage (%), 60 min
[6] = >255.85 if remaining at 60 min greater than 85%

T1 sequence (P28223 whole entry): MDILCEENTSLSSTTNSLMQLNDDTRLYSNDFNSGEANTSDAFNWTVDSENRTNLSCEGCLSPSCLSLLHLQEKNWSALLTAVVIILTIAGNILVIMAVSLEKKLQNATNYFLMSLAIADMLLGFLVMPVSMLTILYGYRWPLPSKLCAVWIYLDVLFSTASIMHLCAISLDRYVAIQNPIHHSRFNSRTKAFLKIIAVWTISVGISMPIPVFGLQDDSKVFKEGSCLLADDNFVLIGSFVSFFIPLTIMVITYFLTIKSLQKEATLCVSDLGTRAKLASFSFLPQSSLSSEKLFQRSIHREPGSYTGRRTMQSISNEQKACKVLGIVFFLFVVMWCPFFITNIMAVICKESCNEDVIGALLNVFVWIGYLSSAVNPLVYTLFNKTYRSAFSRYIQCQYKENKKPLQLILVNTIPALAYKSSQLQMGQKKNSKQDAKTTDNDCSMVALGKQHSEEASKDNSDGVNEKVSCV
Chain of human 5-HT2A receptor (P28223 whole entry): as above

## CC[C@H](C)C(=O)O[C@H]1C[C@@H](C)C=C2C=C[C@H](C)[C@H](CC[C@@H]3C[C@@H](O)CC(=O)O3)[C@H]21 [Lovastatin, reference compound]
Plasma stability, rat; 0 min
  Remaining Percentage (%), 0 min: 100.00%
Plasma stability, rat; [4]
  remaining at 0.5 h: 0.61%
Plasma stability, rat; [5]
  remaining at 1 h: 0.33%

## COc1ccc2c(c1)N(C[C@@H]1CCCN1C)CC2 [(S)-I-58, (S)-6-Methoxy-1-((1-methylpyrrolidin-2-yl)methyl) indoline]
[1]
  RFU@10 μM: 203 RFU
Human 5-HT2A receptor
  IC50: > 30 µM

## CC(C)[N+](C)(CCOC(=O)C1c2ccccc2Oc2ccccc21)C(C)C [Propantheline, reference compound]
Plasma stability, mouse; 0 min
  Remaining Percentage (%), 0 min: 100.00%
Plasma stability, mouse; [4]
  remaining at 0.5 h: 61.6%
Plasma stability, mouse; [6]
  half-life: 37.1 min
Plasma stability, human; 0 min
  Remaining Percentage (%), 0 min: 100.00%
Plasma stability, human; [4]
  remaining at 0.5 h: 29%
Plasma stability, human; [5]
  remaining at 1 h: 2.58%
Plasma stability, human; [6]
  half-life: 11.4 min

## CN(C)CCc1c[nH]c2cccc(O)c12 [Psilocin, 4-hydroxy-N,N-dimethyltryptamine, reference compound]
Human 5-HT1A receptor
  RFU@10 μM: 140 RFU

## CCN(CC)C(=O)[C@@H]1C=C2c3cccc4[nH]cc(c34)C[C@H]2N(C)C1 [LSD]
5-HT2 receptor
  5-HT2 receptor density in rat brain: selectively decreased 5-HT2 receptor density in the rat brain; also recorded: reduce 5-HT2 receptor density in rat brain
[2]
  oscillatory power in areas of the brain's default mode network: decreases in oscillatory power in areas of the brain's default mode network
[3]
  anti-depressant and anxiolytic effects: significant and sustained anti-depressant and anxiolytic effects
